# Key:
# [1] = Comparative dissolution profiles of azithromycin polymorph Ik vs. dihydrate, USP Method 2; type: physicochemical; settings: for percent dissolved: pH 6 (37° C.), USP Method 2
# Procedure: In order to compare the behavior in vitro of the fast dissolving azithromycin polymorph (Formula Ik) with the commercial azithromycin dihydrate product, dissolution profiles have been determined at pH 6.0 at 37° C. The comparative dissolution profiles were determined by USP Method 2, PharmaTest Dissolution Tester, PTW SII; the content of dissolved azithromycin was measured by HPLC.
# [2] = Analysis of adverse events observed during human PK study; type: in vivo
# clinical = settings: human, in vivo, 500 mg
# Procedure: (§1) The test was an open, mono-centric, fasted human study. 6 human subjects were studied using a full cross-over experimental design experiment. […] This crossover experiment was repeated a total of three times by intubations of the test subjects: the first involved GI site-specific administration to the stomach, the second involved GI site-specific administration to the duodenum, and the third involved GI site-specific administration to the jejunum.
# (§2) The kinetics parameters were determined model-independently and the parameters were determined directly from the measured concentrations.
# [3] = In vivo rat pharmacokinetic study, plasma and whole blood concentration time curves after p.o. administration; settings: rats, 50 mg/kg suspension; for ΔIa/dihydrate, Cmax / ΔIa/dihydrate, AUC(0-12): Ia relative to dihydrate; for ΔIa/dihydrate, AUC(0-12): monohydrate, 50 mg/kg
# From the text: 32 animals (Wistar Han rats, fasted) were studied using a cross-over experimental design experiment. A non-compartmental analysis was used to determine the concentrations of the respective materials in whole blood and plasma as a function of time.
# [4] = Comparative dissolution profiles of azithromycin monohydrate Ia vs. dihydrate, USP Method 2; type: physicochemical; settings: pH 1.2, 3.0, 6.0 and 6.8, 37° C., 900 ml buffer, 100 rpm, FIGS. 1-4
# Procedure: In order to compare the behavior in vitro of the fast dissolving azithromycin monohydrate (Formula Ia) with the commercial azithromycin dihydrate product, dissolution profiles have been determined at pH 1.2, pH 3.0, pH 6.0, and pH 6.8, at 37° C. The comparative dissolution profiles were determined in 900 ml buffer solution, at 100 rpm, by USP Method 2, PharmaTest Dissolution Tester, PTW SII; the content of dissolved azithromycin was measured by HPLC. The data thus obtained are plotted in FIGS. 1-4, respectively.
# [5] = Human pharmacokinetic study, plasma concentration after GI site-specific administration of aqueous suspension; settings: 500 mg aqueous suspension; for ΔIa/dihydrate, AUC / ΔIa/dihydrate, Cmax: Ia relative to dihydrate
# Procedure: as §1, §2
# [6] = site-specific administration to duodenum
# [7] = site-specific administration to jejunum
# [8] = site-specific administration to stomach
smiles,measurement,setting,value
"CC[C@H]1OC(=O)[C@H](C)[C@@H](O[C@H]2C[C@@](C)(OC)[C@@H](O)[C@H](C)O2)[C@H](C)[C@@H](O[C@@H]2O[C@H](C)C[C@H](N(C)C)[C@H]2O)[C@](C)(O)C[C@@H](C)CN(C)[C@H](C)[C@@H](O)[C@]1(C)O [Azithromycin Dihydrate, 9-deoxo-9a-aza-9a-methyl-9a-homoerythromycin A dihydrate]",percent dissolved,"[1]; 5 minutes, listed as Commercial 9-deoxo-9a-aza-9a-methyl-9a-homoerythromycin A Dihydrate, dihydrate",14.5%
same,percent dissolved,"[1]; 10 minutes, listed as Commercial 9-deoxo-9a-aza-9a-methyl-9a-homoerythromycin A Dihydrate, dihydrate",27.3%
same,percent dissolved,"[1]; 20 minutes, listed as Commercial 9-deoxo-9a-aza-9a-methyl-9a-homoerythromycin A Dihydrate, dihydrate",44.2%
same,percent dissolved,"[1]; 45 minutes, listed as Commercial 9-deoxo-9a-aza-9a-methyl-9a-homoerythromycin A Dihydrate, dihydrate",69.1%
same,adverse events with a possible causal relationship,"[2]; human, in vivo",3 events
same,Cmax,clinical,94 ng/mL
"CC[C@H]1OC(=O)[C@H](C)[C@@H](O[C@H]2C[C@@](C)(OC)[C@@H](O)[C@H](C)O2)[C@H](C)[C@@H](O[C@@H]2O[C@H](C)C[C@H](N(C)C)[C@H]2O)[C@](C)(O)C[C@@H](C)CN(C)[C@H](C)[C@@H](O)[C@]1(C)O [Pseudopolymorph Ik, 9-deoxo-9a-aza-9a-methyl-9a-homoerythromycin A Pseudopolymorph Ik]",percent dissolved,[1]; 5 minutes,99.8%
same,percent dissolved,[1]; 10 minutes,99.9%
same,percent dissolved,[1]; 20 minutes,97.1%
same,percent dissolved,[1]; 45 minutes,97.6%
same,dissolution profile compared to commercially available azithromycin dihydrate,"[1]; pH 6.0, 37° C.",dissolves faster
CC[C@H]1OC(=O)[C@H](C)[C@@H](O[C@H]2C[C@@](C)(OC)[C@@H](O)[C@H](C)O2)[C@H](C)[C@@H](O[C@@H]2O[C@H](C)C[C@H](N(C)C)[C@H]2O)[C@](C)(O)C[C@@H](C)CN(C)[C@H](C)[C@@H](O)[C@]1(C)O.O [azithromycin monohydrate],AUC(0-12),[3]; plasma,5148 nghr/ml
same,Cmax,[3]; plasma,1006 ng/mL
same,"ΔIa/dihydrate, Cmax",[3]; plasma,+37%
same,"ΔIa/dihydrate, AUC(0-12)","[3]; plasma, listed as azithromycin monohydrate Ia",~29%
same,"ΔIa/dihydrate, AUC(0-12)",[3]; plasma,+29%
same,AUC(0-12),[3]; whole blood,21204 nghr/ml
same,Cmax,[3]; whole blood,5061 ng/mL
same,"ΔIa/dihydrate, Cmax",[3]; whole blood,+97%
same,"ΔIa/dihydrate, AUC(0-12)","[3]; whole blood, listed as azithromycin monohydrate Ia",approximately 27%
same,"ΔIa/dihydrate, AUC(0-12)",[3]; whole blood,+27%
same,dissolution profile compared to commercially available azithromycin dihydrate,[4],dissolves faster
same,"ΔIa/dihydrate, AUC",[5]; duodenum,−13%
same,"ΔIa/dihydrate, Cmax",[5]; duodenum,+10%
same,"ΔIa/dihydrate, AUC",[5]; jejunum,+98%
same,"ΔIa/dihydrate, Cmax",[5]; jejunum,+60%
same,AUC,[5]; [6],719 nghr/ml
same,Cmax,[5]; [6],129 ng/mL
same,AUC,[5]; [7],836 nghr/ml
same,Cmax,[5]; [7],99 ng/mL
same,AUC,[5]; [8],813 nghr/ml
same,Cmax,[5]; [8],143 ng/mL
same,"ΔIa/dihydrate, AUC",[5]; stomach,+19%
same,"ΔIa/dihydrate, Cmax",[5]; stomach,+52%
same,incidence of adverse effects compared to azithromycin dihydrate product,"[2]; human PK study, single dose administration of a comparable amount",lower incidence of adverse effects
